Measured values as given in ChEMBL document CHEMBL4425165, “Discovery of Pyrazolo[1,5-a]pyrimidine TTK Inhibitors: CFI-402257 is a Potent, Selective, Bioavailable Anticancer Agent” (ACS Med Chem Lett, 2016).
In brackets after ≈: the same amount, converted by molar mass.

How the values were obtained:
HCT-116 [1] = assay: Antitumor activity against human HCT116 cells xenografted in athymic nude mouse assessed as tumor growth inhibition measured on day 21 relative to vehicle-treated control; format: functional
HCT-116 [2] = assay: Growth inhibition of human HCT116 cells measured after 5 days by sulforhodamine B assay; format: functional; conditions: HCT-116, 120 h
[3] = Bioavailability in Sprague-Dawley rat at 5 mg/kg by LC-MS/MS analysis; format: ADME, organism-based; conditions: in vivo
Cytochrome P450 2C9 = Cytochrome P450 2C9 (Homo sapiens, UniProt P11712); assay: Inhibition of CYP2C9 (unknown origin) preincubated for 10 mins followed by addition of MFC as substrate measured after 45 mins in presence of NADP by fluorescence analysis; format: ADME
Sequence of Cytochrome P450 2C9 (P11712 whole entry): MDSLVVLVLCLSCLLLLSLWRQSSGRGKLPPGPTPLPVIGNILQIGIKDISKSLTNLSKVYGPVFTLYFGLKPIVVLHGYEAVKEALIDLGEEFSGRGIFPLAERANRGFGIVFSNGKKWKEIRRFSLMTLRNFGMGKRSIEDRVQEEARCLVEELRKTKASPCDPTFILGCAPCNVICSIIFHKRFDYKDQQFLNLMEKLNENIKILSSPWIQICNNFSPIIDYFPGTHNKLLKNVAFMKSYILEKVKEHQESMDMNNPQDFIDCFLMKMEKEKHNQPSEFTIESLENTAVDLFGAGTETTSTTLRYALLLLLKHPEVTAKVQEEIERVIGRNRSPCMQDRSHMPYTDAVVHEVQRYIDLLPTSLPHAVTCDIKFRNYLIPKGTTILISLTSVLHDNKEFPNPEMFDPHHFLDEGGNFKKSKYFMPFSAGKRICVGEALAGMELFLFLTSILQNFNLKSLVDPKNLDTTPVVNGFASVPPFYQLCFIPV

[4] = AUC (0 to infinity) in Sprague-Dawley rat at 5 mg/kg, po by LC-MS/MS analysis; format: ADME, organism-based; set-up: dose 5 mg/kg, time infinity, route oral; conditions: in vivo
HT-29 = assay: Antitumor activity against human HT-29 cells xenografted in athymic nude mouse assessed as tumor growth inhibition at 6.5 mg/kg, po qd measured on day 21; format: functional; conditions: HT-29, po, 504 h, read-out: TGI
[5] = Toxicity in po dosed athymic nude mouse xenografted with human HCT116 cells assessed as induction of overt adverse signs measured on day 21; format: organism-based; conditions: in vivo
[6] = Toxicity in po dosed athymic nude mouse xenografted with human HCT116 cells assessed as weight loss measured on day 21; format: organism-based; conditions: in vivo
Cytochrome P450 3A4 [7] = biological target: T1, Cytochrome P450 3A4 (Homo sapiens, UniProt P08684); assay: Inhibition of CYP3A4 (unknown origin) preincubated for 10 mins followed by addition of DBF as substrate measured after 10 mins in presence of NADP by fluorescence analysis; format: ADME
T1 sequence (P08684 whole entry): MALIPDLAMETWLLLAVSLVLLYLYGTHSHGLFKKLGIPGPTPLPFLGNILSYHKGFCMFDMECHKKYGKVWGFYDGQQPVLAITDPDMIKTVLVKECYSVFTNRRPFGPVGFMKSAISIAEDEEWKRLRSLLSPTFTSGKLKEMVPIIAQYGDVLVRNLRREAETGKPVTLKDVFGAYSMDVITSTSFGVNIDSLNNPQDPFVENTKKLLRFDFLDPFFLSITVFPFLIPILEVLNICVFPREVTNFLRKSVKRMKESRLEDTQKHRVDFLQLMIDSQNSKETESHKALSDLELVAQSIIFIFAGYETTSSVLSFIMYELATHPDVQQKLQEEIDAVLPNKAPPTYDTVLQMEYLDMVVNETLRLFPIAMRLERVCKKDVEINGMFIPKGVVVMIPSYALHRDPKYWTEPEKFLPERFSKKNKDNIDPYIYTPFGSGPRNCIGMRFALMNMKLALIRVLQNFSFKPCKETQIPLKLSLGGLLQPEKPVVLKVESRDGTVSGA

[8] = AUC (0 to infinity) in beagle dog at 5 mg/kg, po by LC-MS/MS analysis; format: ADME, organism-based, Canis lupus familiaris; set-up: dose 5 mg/kg, route oral, time infinity; conditions: in vivo
HCT-116 [9] = assay: Antitumor activity against human HCT116 cells xenografted in athymic nude mouse assessed as tumor growth inhibition at 6.5 mg/kg, po qd measured on day 21; format: functional; conditions: HCT-116, po, 504 h, read-out: TGI
[10] = AUC in athymic CD-1 nude mouse at 10 mg/kg, po by LC-MS/MS analysis; format: ADME, organism-based; conditions: in vivo
MDA-MB-468 = assay: Growth inhibition of human MDA-MB-468 cells measured after 5 days by sulforhodamine B assay; format: functional; conditions: MDA-MB-468, 120 h
[11] = Solubility of the compound at pH 7.4; format: physicochemical; conditions: buffer
[12] = Clearance in Sprague-Dawley rat at 1 mg/kg, iv or 5 mg/kg, po by LC-MS/MS analysis; format: ADME, organism-based; conditions: in vivo
Cytochrome P450 2C19 = Cytochrome P450 2C19 (Homo sapiens, UniProt P33261); assay: Inhibition of CYP2C19 (unknown origin) preincubated for 10 mins followed by addition of MFC as substrate measured after 30 mins in presence of NADP by fluorescence analysis; format: ADME
Sequence of Cytochrome P450 2C19 (P33261 whole entry): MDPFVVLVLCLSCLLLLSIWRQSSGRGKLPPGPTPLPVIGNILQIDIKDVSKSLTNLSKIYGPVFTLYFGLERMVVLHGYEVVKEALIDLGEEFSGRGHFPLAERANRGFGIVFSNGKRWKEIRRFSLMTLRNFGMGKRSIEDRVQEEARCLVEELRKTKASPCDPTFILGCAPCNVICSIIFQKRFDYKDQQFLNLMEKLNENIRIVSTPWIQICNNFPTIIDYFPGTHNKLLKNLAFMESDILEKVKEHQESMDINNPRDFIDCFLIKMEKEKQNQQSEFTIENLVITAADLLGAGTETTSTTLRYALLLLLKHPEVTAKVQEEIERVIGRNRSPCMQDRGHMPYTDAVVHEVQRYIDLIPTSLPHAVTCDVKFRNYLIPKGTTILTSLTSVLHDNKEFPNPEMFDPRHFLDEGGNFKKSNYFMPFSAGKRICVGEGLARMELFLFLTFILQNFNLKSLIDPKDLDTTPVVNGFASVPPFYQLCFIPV

Cytochrome P450 3A4 [13] = biological target: T1, Cytochrome P450 3A4; assay: Inhibition of CYP3A4 (unknown origin) preincubated for 10 mins followed by addition of BFC as substrate measured after 10 mins in presence of NADP by fluorescence analysis; format: ADME
[14] = Toxicity in po dosed athymic nude mouse; format: organism-based; conditions: in vivo
[15] = Clearance in beagle dog at 1 mg/kg, iv or 5 mg/kg, po by LC-MS/MS analysis; format: ADME, organism-based, Canis lupus familiaris; conditions: in vivo
Cytochrome P450 2D6 = Cytochrome P450 2D6 (Homo sapiens, UniProt P10635); assay: Inhibition of CYP2D6 (unknown origin) preincubated for 10 mins followed by addition of AMMC as substrate measured after 30 mins in presence of NADP by fluorescence analysis; format: ADME
Sequence of Cytochrome P450 2D6 (P10635 whole entry): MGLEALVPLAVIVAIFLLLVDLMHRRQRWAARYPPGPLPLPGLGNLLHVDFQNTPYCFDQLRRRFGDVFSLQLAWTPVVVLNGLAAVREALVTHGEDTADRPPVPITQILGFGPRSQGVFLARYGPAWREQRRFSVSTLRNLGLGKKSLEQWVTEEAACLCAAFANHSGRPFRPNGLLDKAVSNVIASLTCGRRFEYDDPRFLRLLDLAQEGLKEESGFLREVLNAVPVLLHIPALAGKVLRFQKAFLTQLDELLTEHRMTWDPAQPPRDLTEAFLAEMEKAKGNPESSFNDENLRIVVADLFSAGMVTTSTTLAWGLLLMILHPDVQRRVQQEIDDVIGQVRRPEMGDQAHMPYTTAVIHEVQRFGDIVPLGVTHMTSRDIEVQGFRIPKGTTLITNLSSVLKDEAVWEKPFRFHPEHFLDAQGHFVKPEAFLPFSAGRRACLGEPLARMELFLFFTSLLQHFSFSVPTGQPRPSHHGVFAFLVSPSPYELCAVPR

Cytochrome P450 1A2 = biological target: T2, Cytochrome P450 1A2 (Homo sapiens, UniProt P05177); assay: Inhibition of CYP1A2 (unknown origin) preincubated for 10 mins followed by addition of CEC as substrate measured after 15 mins in presence of NADP by fluorescence analysis; format: ADME
T2 sequence (P05177 whole entry): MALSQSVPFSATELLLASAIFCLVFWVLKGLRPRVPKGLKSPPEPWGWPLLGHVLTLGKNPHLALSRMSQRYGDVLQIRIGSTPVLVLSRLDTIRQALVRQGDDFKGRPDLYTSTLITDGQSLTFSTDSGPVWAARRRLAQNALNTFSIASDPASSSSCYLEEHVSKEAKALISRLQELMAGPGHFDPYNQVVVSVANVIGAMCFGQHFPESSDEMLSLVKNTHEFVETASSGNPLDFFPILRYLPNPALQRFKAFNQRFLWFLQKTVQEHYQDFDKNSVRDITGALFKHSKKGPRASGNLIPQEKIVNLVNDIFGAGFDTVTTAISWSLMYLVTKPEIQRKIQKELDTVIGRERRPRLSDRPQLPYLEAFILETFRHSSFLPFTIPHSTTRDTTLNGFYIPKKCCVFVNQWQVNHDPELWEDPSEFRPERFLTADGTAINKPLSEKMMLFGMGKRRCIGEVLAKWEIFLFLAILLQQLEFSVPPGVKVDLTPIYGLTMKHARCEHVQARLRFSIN

[16] = Cmax in athymic CD-1 nude mouse at 10 mg/kg, po by LC-MS/MS analysis; format: ADME, organism-based; set-up: dose 10 mg/kg, route oral; conditions: in vivo
[17] = Solubility of the compound at pH 2; format: physicochemical; conditions: buffer
OVCAR-3 = assay: Growth inhibition of human OVCAR3 cells measured after 5 days by sulforhodamine B assay; format: functional; conditions: OVCAR-3, 120 h
[18] = Dissociation constant, pKa of the compound; format: physicochemical
HCT-116 [19] = assay: Antitumor activity against human HCT116 cells xenografted in athymic nude mouse assessed as tumor growth inhibition at 5.5 mg/kg, po qd measured on day 21; format: functional; conditions: HCT-116, po, 504 h, read-out: TGI
[20] = Bioavailability in beagle dog at 5 mg/kg by LC-MS/MS analysis; format: ADME, organism-based, Canis lupus familiaris; conditions: in vivo
[21] = biological target: T3, Dual specificity protein kinase TTK (Homo sapiens, UniProt P33981)
T3 sequence (P33981 whole entry): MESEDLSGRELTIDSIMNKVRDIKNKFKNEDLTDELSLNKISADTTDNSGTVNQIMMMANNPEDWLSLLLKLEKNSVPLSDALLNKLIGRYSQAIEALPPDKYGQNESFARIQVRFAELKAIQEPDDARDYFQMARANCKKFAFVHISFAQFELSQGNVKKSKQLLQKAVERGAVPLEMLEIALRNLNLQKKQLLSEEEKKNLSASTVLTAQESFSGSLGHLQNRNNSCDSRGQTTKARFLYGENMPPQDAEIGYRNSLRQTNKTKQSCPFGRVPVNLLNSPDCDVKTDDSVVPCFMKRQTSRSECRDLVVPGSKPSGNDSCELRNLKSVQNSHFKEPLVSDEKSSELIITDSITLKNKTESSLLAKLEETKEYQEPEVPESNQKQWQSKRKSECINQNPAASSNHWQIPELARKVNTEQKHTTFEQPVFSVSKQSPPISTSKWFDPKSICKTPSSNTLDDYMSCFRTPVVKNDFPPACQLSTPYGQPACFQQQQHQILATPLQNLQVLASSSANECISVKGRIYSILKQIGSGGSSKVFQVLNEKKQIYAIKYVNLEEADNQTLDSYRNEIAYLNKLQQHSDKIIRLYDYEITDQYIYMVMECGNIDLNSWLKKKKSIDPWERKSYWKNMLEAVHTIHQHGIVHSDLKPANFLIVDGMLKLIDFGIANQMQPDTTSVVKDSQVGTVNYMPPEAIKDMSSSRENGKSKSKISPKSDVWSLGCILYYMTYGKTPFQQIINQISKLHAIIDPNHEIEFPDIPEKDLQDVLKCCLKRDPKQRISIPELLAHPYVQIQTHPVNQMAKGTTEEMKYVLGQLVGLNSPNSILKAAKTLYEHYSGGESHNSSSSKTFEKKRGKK

[22] = Drug uptake in po dosed mouse plasma; format: ADME, organism-based; conditions: in vivo

Compound | GI50 (HCT-116 [2]) | bioavailability [3] | AUC(0-inf) [4] | inhibition in vivo at 6.5 mg/kg (HT-29) | AUC(0-inf) [8] | inhibition in vivo at 6.5 mg/kg (HCT-116 [9]) | AUC [10] | GI50 (MDA-MB-468) | solubility [11] | clearance [12] | IC50 (Cytochrome P450 3A4 [13]) | MTD [14] | clearance [15] | Cmax [16] | solubility [17] | GI50 (OVCAR-3) | pKa [18] | bioavailability [20] | also measured
Cc1cc(-c2cnn3c(NC[C@H]4C[C@@](C)(O)C4)cc(Oc4cccnc4)nc23)ccc1C(=O)NC1CC1 [LUVIXASERTIB] | 2 nM | 53% | 3400 ng·h/mL | 60% | 25000 ng·h/mL | 68% | 7500 ng·h/mL | 2 nM | 3.3 µg/mL (≈ 6.62 µM) | 14 mL/min/kg | 510 nM | 6.5 mg/kg | 4.9 mL/min/kg | 2500 ng/mL | 560 µg/mL (≈ 1120 µM) | 4 nM | 3.7 | 114% | TGI (HCT-116 [1]): Dose-dependent effect; IC50 (Cytochrome P450 2C9): 13000 nM; Activity [5]: Non-Toxic; Activity [6]: < 10%; IC50 (Cytochrome P450 3A4 [7]): 14000 nM; IC50 (Cytochrome P450 2C19): 8000 nM; IC50 (Cytochrome P450 2D6): Not Active; IC50 (Cytochrome P450 1A2): Not Active; inhibition in vivo at 5.5 mg/kg (HCT-116 [19]): 68%
Cc1cc(-c2cnn3c(NCCN4CCOCC4)cc(Oc4cccc(F)c4)nc23)ccc1C(=O)NC1CC1 | 1 nM | 77% | 1900 ng·h/mL | 41% | 2200 ng·h/mL | 72% | 3600 ng·h/mL | 20 nM | 1.5 µg/mL (≈ 2.83 µM) | 34 mL/min/kg | 780 nM | 6.5 mg/kg | 29 mL/min/kg | 1200 ng/mL | 11000 µg/mL (≈ 20700 µM) | 260 nM | 6.7 | 77% | IC50 [21]: 2.2 nM; Drug uptake [22]: Dose-dependent effect
